{"source": "patent US11642391B2", "about": "“Compositions containing a pharmacophore with selectivity to diseased tissue and methods of making same” (Vascular BioSciences, priority 2014, dated 2023)", "key": {"sepsis": {"tested_on": "sepsis", "details": "cited from earlier work"}, "LPS-induced sepsis": {"tested_on": "LPS-induced sepsis", "assay": "Survival in LPS mouse model of sepsis", "type": "in vivo, mice", "description": "Fifty-percent of all mice with LPS-induced sepsis that are left untreated are dead within 48 hours. When these LPS mice are treated with clinically relevant doses of the common and experimental sepsis drugs hydrocortisone, antithrombin III or sivelestat, survival ranged from 40-56%, similar to current clinical outcomes. In contrast, when LPS mice were co-administered CAR at the same time as hydrocortisone, antithrombin III or sivelestat, experimental sepsis survival improved to 83-89%.\nInjection of the bacterial protein, lipopolysaccharide (LPS), was used to induce sepsis in mice. Doses were given at 3, 6, 9, and 12 hours to match the clinical use of sivelestat. Survival was measured up to 48 hours after LPS injection. At 48 hours, the survival rate of CAR pharmacophore+sivelestat treated animals was 89% compared to 50% in both control and sivelestat only groups, representing a 78% increase in survival of animals treated with CAR pharmacophore (FIG. 12).\nSepsis was initiated and survival measured with doses given at 3 and 24 hours to match the clinical use of ATIII. […]\nCAR pharmacophore dramatically improves survival in septic mice treated with hydrocortisone steroid. Sepsis was initiated and survival measured with doses given at 3 and 24 hours to match the clinical use of hydrocortisone. […]"}, "[1]": {"tested_on": "monocrotaline-induced PAH", "assay": "Monocrotaline-induced (MCT) PAH rat model, co-administration with imatinib", "type": "in vivo, Sprague-Dawley rats", "details": "prolonged intravenous administration of imatinib alone", "description": "CAR pharmacophore co-administration with imatinib in a rat model of monocrotaline-induced (MCT) PAH was used to observe the therapeutic utility of CAR for targeting PAH. CAR pharmacophore peptide was intravenously co-administered with 10 mg/kg or 50 mg/kg imatinib for 14 days starting 4 weeks post MCT induction.\nPAH was induced in male Sprague-Dawley rats (300-330 g, 10 weeks old, Harlan) with a single intraperitoneal dose of monocrotaline (60 mg/kg). Treatment was initiated four weeks after PAH induction with either imatinib (50 mg/kg or 10 mg/kg) or imatinib (50 mg/kg or 10 mg/kg)+CAR pharmacophore combination (3 mg/kg) for 2 weeks with daily i.v. (FIGS. 22 and 23) or daily sublingual administration."}, "MDA-MB-231 cells": {"tested_on": "MDA-MB-231 cells", "assay": "Triple negative breast cancer model in athymic nude mice", "type": "in vivo", "details": "after 32 days; 3 mg/kg i.v. every other day, 15 doses", "method": "In female athymic nude mice (CRL: NU(NCr)—Foxn1nu, 11 weeks old, Charles River), triple negative breast cancer tumors were initiated via subcutaneous injection of 5×10^6 MDA-MB-231 cells into the right flank. Tumor growth was monitored until the average tumor size approached 100-150 mm3. […] Animals were dosed intravenously every other day for a total of 15 doses. Tumor volume was measured using calipers twice per week and animals weighed daily on days 1-5 and then on a twice weekly schedule."}, "[2]": {"tested_on": "lung, liver and kidney endothelium of septic animals", "assay": "Scanning electron micrograph of lung, liver and kidney tissue in LPS sepsis", "type": "in vivo, mice"}, "CHO cells": {"tested_on": "CHO cells", "details": "prior experiments; linear truncated peptides; cited from earlier work"}, "[3]": {"tested_on": "diseased kidney (anti-glomerular basement membrane antibody induced glomerular injury)", "assay": "CAR pharmacophore targeting in rat model of crescentic glomerular nephritis", "type": "in vivo", "details": "i.v. 3.3 mg/kg B.W., 14 days after induction, kidneys harvested three hours after injection", "description": "A rat model of crescentic glomerular nephritis (anti-glomerular basement membrane antibody induced glomerular injury) was used to observe the utility of CAR pharmacophore targeting in chronic kidney disease. Glomerulonephritis was induced in rat kidneys by i.v. injection of anti-glomerular basement membrane antibodies. 14 days after induction, CAR pharmacophore peptide or control ([…] SEQ ID NO: 34) peptide was i.v. injected at 3.3 mg/kg B.W. Kidneys were harvested three hours after CAR pharmacophore or control injection and Masson's trichrome (collagen) staining and fibronectin immunostaining were used to determine development of kidney disease and fibrosis formation."}, "[4]": {"details": "meta-analysis of 8 trials (Iwata et al., 2010)"}}, "data": [{"compound": "C[C@]12CCC(=O)C=C1CC[C@@H]1[C@@H]2[C@@H](O)C[C@@]2(C)[C@H]1CC[C@]2(O)C(=O)CO", "note": "[hydrocortisone]", "values": [{"measurement": "super infection", "setting": "sepsis; low-dose hydrocortisone therapy, septic shock", "result": "more episodes of super infection"}, {"measurement": "survival in patients with septic shock", "setting": "sepsis; low-dose hydrocortisone therapy", "result": "did not improve survival"}, {"measurement": "survival rate", "setting": "LPS-induced sepsis; 48 hours, hydrocortisone only, doses at 3 and 24 hours", "result": 56, "unit": "%"}]}, {"compound": "Cc1ccc(NC(=O)c2ccc(CN3CCN(C)CC3)cc2)cc1Nc1nccc(-c2cccnc2)n1", "note": "[imatinib]", "values": [{"measurement": "effect on bodyweight", "setting": "[1]", "result": "significant adverse effect on bodyweight"}]}, {"compound": "CC(=O)O[C@H]1C(=O)[C@@]2(C)[C@H]([C@H](OC(=O)c3ccccc3)[C@]3(O)C[C@H](OC(=O)[C@H](O)[C@@H](NC(=O)c4ccccc4)c4ccccc4)C(C)=C1C3(C)C)[C@]1(OC(C)=O)CO[C@@H]1C[C@@H]2O", "note": "[paclitaxel]", "values": [{"measurement": "bodyweight gain relative to average starting bodyweight", "setting": "MDA-MB-231 cells", "result": 5, "unit": "%"}]}, {"compound": "CC(C)(C)C(=O)Oc1ccc(S(=O)(=O)Nc2ccccc2C(=O)NCC(=O)O)cc1", "note": "[sivelestat]", "values": [{"measurement": "180 day mortality", "setting": "sepsis; [4]", "result": "possibly increased"}, {"measurement": "mechanical ventilation days", "setting": "sepsis; [4]", "result": "no difference"}, {"measurement": "mortality rate within 28-30 days after randomization", "setting": "sepsis; [4]", "result": "no difference"}, {"measurement": "pulmonary arteriole endothelium degradation (SEM, lung)", "setting": "[2]", "result": "did not prevent degradation of the continuous pulmonary arteriole endothelium"}, {"measurement": "sieve plates (SEM, liver)", "setting": "[2]", "result": "not able to prevent defenestration of sieve plates"}, {"measurement": "tissue damage (SEM, kidney)", "setting": "[2]", "result": "did not prevent gross tissue damage"}, {"measurement": "survival rate", "setting": "LPS-induced sepsis; 48 hours after LPS injection, doses at 3, 6, 9, and 12 hours", "result": 50, "unit": "%"}]}, {"compound": "CARSKNK [SEQ ID NO: 24]", "values": [{"measurement": "cell binding and tissue homing", "setting": "CHO cells", "result": "highly active"}]}, {"compound": "CGGGGGGGC [control peptide]", "values": [{"measurement": "accumulation in the diseased kidney", "setting": "[3]", "result": "largely cleared from the kidney"}]}]}
